Assays:
[1] = Body weight of diet-induced obese male C57BL/6J mice, repeated oral dosing for 28 days; assay type: in vivo, mouse; conditions: Dunnett's test p<0.001; doses as in Table 2
Description: Sibutramine, which is currently used clinically, and rimonabant, which has recently received regulatory approval for the management of obesity were used as reference compounds.
Sixty-five C57BL/6J mice (7-8 weeks of age) were ordered from Charles River, Margate, Kent. Mice were group housed in polypropylene cages with free access to a high fat diet (D12451 45% of Kcal derived from fat; Research Diets, New Jersey, USA) and tap water at all times. Animals were maintained at 21±4° C. and 55±20% humidity on a normal phase 12 h light-dark cycle (lights on 04:30 h)
Animals were exposed to the high fat diet for 16 weeks. During this time body weight was recorded weekly. […] Body weight and food and water intake was recorded daily. […]
Body weight and food and water intake were recorded daily. Following drug administration the animals were examined and any overt behaviour was recorded. […]
The test compounds were dissolved in 1% methylcellulose. […] Drug doses were expressed as free base.
Resulting body weights, food intake and water intake were expressed as mean values±SEM, and the SEMs are calculated from residuals of the statistical model. Body weight data was analysed by ANCOVA with Day 1 as covariate followed by appropriate comparisons (two-tailed) to determine significant differences from the control group. […] Daily food and water intake data was analysed by ANOVA.

[2] = Acute administration: wet mash and food intake and 24 h body weight in lean male C57BL/6J mice; assay type: in vivo, mouse; conditions: dosed orally at 10 mg/kg
Description: The goal of this study was to investigate the effects of various ratios of bupropion:(R)-norfluoxetine on body weight and food and water intake in male C57BL/6J mice habituated to the daily presentation of a palatable wet mash diet. […] Animals were maintained on normal-phase lighting. Test compounds were administered orally and measurements were made over the following 24 hours. All experiments included appropriate vehicle-treated control groups.
Sixty-two male C57BL/6J mice (weight range 20-25 g) were ordered from Harlan UK, Bicester, UK. The mice were individually housed in polypropylene cages at a temperature of 21±4° C. and 55%±20% humidity. Animals were maintained on a normal phase light-dark cycle (lights off for 12 h from 19:00-07:00 h) during which time the room was illuminated by red light. […] In addition, animals were habituated to a daily presentation of a wet mash diet (1 part powdered chow:1.5 parts tap water) placed on a dish on the cage floor. Animals were maintained under these conditions for at least ten days before experimentation commenced.
Typically an acute study was run each week with each study containing 60 animals. On the day prior to testing, the experimental animals were randomly allocated to suitable treatment groups. Animals were weighed and 2 h wet mash intake was calculated (to the nearest 0.1 g). […]
Drug administration occurred 60 minutes before the presentation of ‘wet mash’ which was at approximately 09:30 am. […] The mash was replaced with a fresh quantity of wet mash at the 4 hour time point. […] Wet mash was replaced with a known quantity of standard pellets at the 6 hour time point. […] Food and water intakes of the different groups of animals were measured concurrently. The animals were monitored at each reading and any overt drug-induced behavioural effects were recorded. […]
Results (body weights (g) at 0, 24 h; change in body weight (g) over 24; food and water intake at 1, 2, 4, 6 and 24 h and between 1-2 h, 2-4 h, 4-6 h) were expressed as mean values±SEM. […]

[3] = target: T1, human CB1 receptors (Homo sapiens, UniProt P21554); assay: Competition ligand binding assay, CHO-k1 cell membranes; conditions: human CB1 cell membranes (FIG. 6)
T1 construct: expressed in transfected cells; host or cells: CHO-k1 cells (membranes)
T1 sequence (P21554 whole entry): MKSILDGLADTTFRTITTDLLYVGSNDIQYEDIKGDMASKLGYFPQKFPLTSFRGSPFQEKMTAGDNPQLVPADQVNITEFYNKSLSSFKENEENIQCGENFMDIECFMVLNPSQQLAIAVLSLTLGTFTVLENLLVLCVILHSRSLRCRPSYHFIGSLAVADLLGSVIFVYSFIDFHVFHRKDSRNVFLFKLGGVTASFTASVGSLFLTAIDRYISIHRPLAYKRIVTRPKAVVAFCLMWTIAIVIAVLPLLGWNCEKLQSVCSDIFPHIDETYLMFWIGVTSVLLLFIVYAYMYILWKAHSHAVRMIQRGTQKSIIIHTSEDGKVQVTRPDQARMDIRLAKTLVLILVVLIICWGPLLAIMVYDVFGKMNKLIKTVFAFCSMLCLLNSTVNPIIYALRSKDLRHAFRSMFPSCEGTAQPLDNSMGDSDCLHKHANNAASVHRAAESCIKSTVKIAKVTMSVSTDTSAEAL
Description: (§1) Competition ligand binding assays were performed with the non-selective cannabinoid receptor agonist ([^3H]CP 55,940) (0.75 nM) in the binding buffer containing 50 mM Tris-HCl, pH 7.4, 3 mM MgCl2, 1 mM EDTA, 0.2% BSA using CHO-k1 cell membranes stably expressing human CB1 receptors or mouse brain membrane preparations in 96-well plate format. The receptor membranes (10 μg/well) were pre-incubated with different concentrations of tested compounds in the binding buffer at room temperature for 30 min prior to addition of 0.75 nM [^3H]CP 55,940 in a final volume of 100 μl. The binding was carried out at room temperature for another 2 h. To determine the non-specific binding, experiments were also performed in the presence of 10 μM unlabeled CP 55,940. Binding was terminated by addition of cold binding buffer and filtrated on Whatman GF/B glass-fiber filters using a sampling manifold. The filters were washed 6 times with cold binding buffer and air-dried overnight. The radioactivity was quantitated on a TopCounter (PerkinElmer) after adding scintillation fluid. Specific binding was defined as the difference between the binding in the presence and absence of 10 μM unlabeled CP 55, 940.

[4] = target: T2, Human Cannabinoid 1 (CB1) (Homo sapiens, UniProt P21554); assay: Ca2+i response to 2-AG (dose-response with or without compound), CB1 GqΔGi/CHO cells, DSIS flow cytometry; assay type: cell-based; conditions: 2-AG with or without compound (FIG. 2)
T2 construct: expressed in transfected cells; host or cells: CHO cells stably expressing the GqΔGi chimera
T2 sequence (P21554 whole entry): as above
From the text: cDNA for the G protein GqΔGi chimera was generated by PCR and inserted into the polylinker region of the pcDNA3/hygro+vector (Invitrogen). Stable expression of GqΔGi chimera protein in CHO cell line was generated under hygromycin selection. Human Cannabinoid 1 (CB1) cDNA was inserted into the polylinker region of the pcDNA3.1/(+) vector (Invitrogen) and DNA was introduced into the GqΔGi/CHO cell line by Lipofectamine reagent (Invitrogen). Cell lines stably expressing the CB receptor with Gq ΔGi chimera protein were generated by double selection with hygromycin and G418 (Coward, P., et al. 1999. Chimeric G proteins allow a high-throughput signaling assay of Gi-coupled receptors. Anal Biochem. 270:242-8).
CB1 Cells were plated 24-48 hours in advance, and were harvested with trypsin at ˜80% confluency. […]
The probe-loaded CB1 and Control cell mixture was placed in the Cell Suspension System on the DSIS where they were continuously rocked to keep them in a suspended state. […] The DSIS software, NVS Sampler, recorded a timing file and the CyAn software, Summit, recorded a data file. These two files were then compiled and analyzed by our proprietary software, NVS Analyzer, to determine the percent of cells that responded to each concentration. The data was transferred to GraphPAD Prism for a non-linear regression curve fit that determined the EC50. […]

[5] = target: T3, CB2 receptor (Homo sapiens, UniProt P34972); assay: Ca2+i response to 2-AG (dose-response with or without compound), CB2 receptor bearing cells; assay type: cell-based; conditions: CB2 receptor bearing cells (FIG. 2)
T3 construct: host or cells: CB2 receptor bearing cells
T3 sequence (P34972 whole entry): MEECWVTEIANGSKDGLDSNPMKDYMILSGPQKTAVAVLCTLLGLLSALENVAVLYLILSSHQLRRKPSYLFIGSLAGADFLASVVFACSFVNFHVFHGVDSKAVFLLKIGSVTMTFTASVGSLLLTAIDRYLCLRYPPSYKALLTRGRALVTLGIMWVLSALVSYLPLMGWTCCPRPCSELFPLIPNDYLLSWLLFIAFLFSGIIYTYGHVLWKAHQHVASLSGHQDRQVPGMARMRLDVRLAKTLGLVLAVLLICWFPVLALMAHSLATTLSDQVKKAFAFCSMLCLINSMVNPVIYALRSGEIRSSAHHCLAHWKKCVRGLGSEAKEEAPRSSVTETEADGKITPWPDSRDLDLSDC

[6] = target: T4, mouse CB1 (mouse brain membrane) (Mus musculus, UniProt P47746); assay: Competition ligand binding assay, mouse brain membrane preparations; conditions: mouse brain membranes (FIG. 6)
T4 construct: human CB1 receptors or mouse brain membrane preparations in 96-well plate format; from tissue; host or cells: mouse brain membrane preparations
T4 sequence (P47746 whole entry): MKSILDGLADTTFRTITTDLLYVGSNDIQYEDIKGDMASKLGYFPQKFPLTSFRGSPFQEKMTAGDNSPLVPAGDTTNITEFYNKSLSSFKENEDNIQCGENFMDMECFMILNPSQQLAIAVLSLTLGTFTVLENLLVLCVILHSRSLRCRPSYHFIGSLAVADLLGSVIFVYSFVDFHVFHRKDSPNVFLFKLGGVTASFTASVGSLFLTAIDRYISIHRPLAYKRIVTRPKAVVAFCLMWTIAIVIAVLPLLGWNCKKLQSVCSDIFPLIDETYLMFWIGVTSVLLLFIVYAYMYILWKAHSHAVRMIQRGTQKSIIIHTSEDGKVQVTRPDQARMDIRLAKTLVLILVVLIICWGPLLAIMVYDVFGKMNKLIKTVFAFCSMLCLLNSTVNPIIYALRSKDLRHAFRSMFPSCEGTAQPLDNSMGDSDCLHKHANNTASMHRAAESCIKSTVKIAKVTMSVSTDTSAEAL
Description: as §1

[7] = target: T1, human CB1 receptors; assay: [35S]GTPγS binding assay, CHO-k1 cell membranes; assay type: biochemical
Description: [^35S]GTPγS binding assays were performed with CHO-k1 cell membranes stably expressing human CB1 receptors in 96-well ScintiPlate (PerkinElmer). The membranes (12.5 μg/well) were preincubated with compound 7 in the binding buffer (50 mM Tris-HCl, pH 7.4, 100 mM NaCl, 3 mM MgCl2, 0.2 mM EDTA, 0.2% BSA and 10 μM GDP) at 30° C. for 30 min, then added various concentrations of agonists (WIN 55212-2 or CP 55,940) and [^35S]GTPγS (0.2 nM) in a final volume of 200 μl. Reactions were carried out at 30° C. for 60 min, followed by centrifugation of plate at […] for 15 min. After removing supernatant, the radioactivity was quantitated on a TopCounter.

Row | Compound | weight reduction as compared to vehicle on day 29 [1] | 24 hour body weight change versus vehicle ([2]; one-way ANOVA (FIG. 10)) | daily food intake versus vehicle ([2]; one-way ANOVA (FIG. 15)) | body weight versus vehicle ([2]; one-way ANOVA (FIG. 16)) | inhibition of binding of [3H]CP 55,940 [3] | effect on the 2-AG dose response (Ca2+i) [4] | effect on the 2-AG dose response (Ca2+i) [5] | inhibition of binding of [3H]CP 55,940 [6] | pA2 estimation using CP 55940 as an agonist ([7]; CB1 cell line membranes (FIG. 4)) | antagonist versus inverse agonist activity in [35S]GTPγS binding ([7]; response dropped below basal levels (FIG. 5))
1 | Cc1c(C(=O)NN2CCCCC2)nn(-c2ccc(Cl)cc2Cl)c1-c1ccc(Cl)cc1 [Rimonabant] | statistically significant weight reduction | No significant differences versus vehicle | No significant differences versus vehicle | No significant differences versus vehicle | – | – | – | – | – | –
2 | Fc1ccc(C(OCCCc2c[nH]cn2)c2ccc(F)cc2)cc1 [compound 7] | – | – | – | – | partially inhibited | right shift | No effect | almost fully inhibited | did not support an allosteric effect | inverse agonist activity

— patent publication US20090264470A1 (priority 2006, published 2009)
